Measurements: patent US20190060275A1, “Administration of hypoxia activated prodrugs and antiangiogenic agents for the treatment of cancer” (Molecular Templates, Inc., priority 2010, published 2019)
Where two headings read alike, the source gives them in different places. Marks after values point to notes of the source that are not given here.

Columns and labels:
[1] = system: 786-O human renal cell carcinoma (RCC) xenograft; assay: Tumor growth inhibition in 786-O RCC xenograft; type: in vivo, nude mice
Experimental: (§1) Xenograft tumors were established by s.c. implantation of 5×10^6 786-O human renal cell carcinoma (RCC), 5×10^6 A375 melanoma, or 1×10^6 H460 human non-small cell lung cancer (NSCLC) cells into the flanks of nude mice, or 5×10^6 PLC/PRF/5 hepatocellular carcinoma (HCC) into the flanks of Severe Combined Immunodeficient (SCID) mice. Tumor hypoxia was detected by pimonidazole immunostaining, and morphometric analysis was performed to determine the hypoxic fraction. When tumor size was approximately 100-150 mm^3, sunitinib or sorafenib was administered daily. Sunitinib at 20, 40, or 80 mg/kg was administered p.o. daily for 3 weeks (QDx21). For all of these studies except the study utilizing the A375 melanoma model, TH-302 administration began one week after antiangiogenic agent administration. In the A375 melanoma model, TH-302 administration was begun on the same day as sorafenib administration. TH-302 at 50 mg/kg was administered i.p. daily for 5 days on and 2 days off (QDx5) for 2 weeks. Sunitinib was administered 4 hours before TH-302 on days when both agents were given.
The following tables summarize the data obtained in the studies described above.

[2] = Maximum body weight loss (toxicity indicator) in xenograft-bearing nude mice
Experimental: as §1
(§2) In another study, sunitinib was administered for 5 weeks, and TH-302 was administered for 4 weeks, beginning one week after sunitinib therapy was initiated, in accordance with the methods of the invention.

[3] = system: 786-O human renal cell carcinoma (RCC) xenograft; assay: Tumor growth inhibition in 786-O RCC xenograft; type: in vivo, nude mice; remark: listed apart in the source
[4] = system: 786-O RCC xenograft tumors; assay: Antiangiogenic-induced hypoxia in 786-O xenograft tumors (pimonidazole / Hoechst 33342, morphometric analysis); type: in vivo, nude mice; details: for tumor hypoxia volume: vehicle 0.8±0.2%; for hypoxic fraction in the 786-O xenograft tumor: morphometric analysis, vehicle 1.4±0.9%
Experimental: To measure the extent of tumor hypoxia and to illustrate methods for increasing the hypoxic fraction of a tumor with an antiangiogenic agent, so as to render the tumor more susceptible to treatment with a hypoxia activated prodrug, nude mice bearing 786-O RCC xenograft tumors were randomized into 3 groups, vehicle (8 mice), sunitinib (Sutent, Pfizer) 20 mg/kg and 40 mg/kg, QDx5, oral, respectively (6 mice each). Seventy one hours after the last sunitinib administration, pimonidazole was administered. Hoechst 33342 was administered 1 hour after administering pimonidazole. About a minute after administering the Hoechst 33342, the animals were sacrificed and tissues harvested.
Sorafenib 20 mpk (mgs per kilogram) and 40 mpk were orally administered once daily for 7 days. Pimonidazole was administered 3 h after the last sorafenib administration. Hoechst 33342 was administered 1 h after administering pimonidazole. About a minute after administering the Hoechst 33342, the animals were sacrificed and tissues harvested.

[5] = system: H460 human non-small cell lung cancer (NSCLC) xenograft; assay: Tumor growth inhibition in H460 NSCLC xenograft; type: in vivo, nude mice
Experimental: as §1, §2

[6] = system: PLC/PRF/5 hepatocellular carcinoma (HCC) xenograft; assay: Tumor growth inhibition in PLC/PRF/5 HCC xenograft; type: in vivo, SCID mice; details: HCC: PLC/PRF/5; Sorafenib 20 mpk QD×16; TH-302 50 mpk
Experimental: as §1

[7] = system: A375 melanoma xenograft; assay: Tumor growth inhibition in A375 melanoma xenograft; type: in vivo, nude mice; details: Sorafenib 20 mpk QD×16, TH-302 50 mpk begun on the same day as sorafenib
Experimental: as §1

[8] = Maximum body weight loss in PLC/PRF/5 xenograft-bearing SCID mice; details: HCC: PLC/PRF/5; Sorafenib 20 mpk; TH-302 50 mpk; vehicle 5.9
Experimental: as §1, §2

[9] = system: RCC; details: cited from earlier work
[10] = system: PLC/PRF/5 hepatocellular cancer xenograft tumor; assay: Sorafenib-induced hypoxia in PLC/PRF/5 xenograft tumors; details: vehicle 4.3±0.4%
Experimental: The hypoxia level in another cancer, hepatocellular cancer PLC/PRF/5, after sorafenib administration was also measured. The measurement was carried out as above, except that sorafenib was administered at 20 or 40 mg/kg once daily for 8 days.

[11] = system: H460 non small cell lung cancer (NSCLC) xenograft tumors; assay: Sunitinib-induced hypoxia in H460 xenograft tumors (pimonidazole / Hoechst 33342, morphometrics); type: in vivo, nude mice; details: sunitinib 40 mg/kg QDx5 intraperitoneally; vehicle 7.3±3.8%; p<0.05
Experimental: To measure the extent of tumor hypoxia and to illustrate methods for increasing the hypoxic fraction of a tumor with an antiangiogenic agent, so as to render the tumor more susceptible to treatment with a hypoxia activated prodrug, nude mice bearing H460 non small cell lung cancer (NSCLC) xenograft tumors were intraperitoneally administered sunitinib with the dose of 20 mg/kg and 40 mg/kg. QDx5, respectively (5 mice each), and compared with vehicle treated animals (5 mice). […] The percent hypoxic fraction in the harvested tissue was analyzed by morphometrics.

[12] = system: breast cancer; details: cited from earlier work
[13] = system: metastatic renal cell carcinoma (mRCC); details: cited from earlier work
[14] = system: RCC; details: cited from earlier work; remark: listed apart in the source
[15] = RCC: 786-O, Sorafenib 30 mpk QD×14, TH-302 50 mpk QDx5/week for two weeks
[16] = NSCLC: H460, Sorafenib 20 mpk QD×16, TH-302 50 mpk
[17] = Melanoma: A375, Sorafenib 20 mpk, TH-302 50 mpk
[18] = NSCLC: H460, Sorafenib 20 mpk, TH-302 50 mpk
[19] = RCC: 786-O, Sorafenib 30 mpk, TH-302 50 mpk
[20] = H460, Sunitinib 5 wks + TH-302 4 wks, sunitinib 40 mpk, alone or with TH-302
[21] = H460, Sunitinib 5 wks + TH-302 4 wks, sunitinib 80 mpk, alone or with TH-302
[22] = H460, Sunitinib 3 wks + TH-302 2 wks study, TH-302 50 mpk monotherapy
[23] = H460, Sunitinib 5 wks + TH-302 4 wks study, TH-302 50 mpk monotherapy

## CO[C@H]1C[C@@H]2CC[C@@H](C)[C@@](O)(O2)C(=O)C(=O)N2CCCC[C@H]2C(=O)O[C@H]([C@H](C)C[C@@H]2CC[C@@H](OCCO)[C@H](OC)C2)CC(=O)[C@H](C)/C=C(\C)[C@@H](O)[C@@H](OC)C(=O)[C@H](C)C[C@H](C)/C=C/C=C/C=C/1C [Everolimus, everolimus]
[1]; 786-O RCC, TH-302 50 mgs per kg QD×19 or 12 days from Day 8, everolimus QD×19
  TGI: less than 50%
[2]; 786-O RCC, Everolimus 5 mpk monotherapy
  Max. BW loss (%): 0%
[3]; Everolimus 5 mpk QD×19 monotherapy
  TGI (%): 48.8* %

## CNC(=O)c1cc(Oc2ccc(NC(=O)Nc3ccc(Cl)c(C(F)(F)F)c3)cc2)ccn1 [Sorafenib, sorafenib]
[4]; sorafenib 20 mg/kg orally once daily for 7 days
  tumor hypoxia volume: 3.5±1.6%
[4]; sorafenib 40 mg/kg orally once daily for 7 days, p<0.05 vs. vehicle
  tumor hypoxia volume: 10±2.5%
[1]; [15]
  TGI (%): 38 * %
[5]; [16]
  TGI (%): 74 * %
[6]
  TGI (%): 56 * %
[7]
  TGI (%): 67 * %
[2]; [17]
  Max. BW loss (%): 3.1%
[2]; [18]
  Max. BW loss (%): 4.8%
[2]; [19]
  Max. BW loss (%): 0.4%
[8]
  Max. BW loss (%): 5.6%
[9]; placebo 12 weeks
  median PFS: 24 weeks
[9]; placebo 14.3 months
  OS: 17.8 months
[10]; sorafenib 20 mg/kg once daily for 8 days, p<0.05 vs. vehicle
  tumor hypoxia volume: 6.5±0.6%
[10]; sorafenib 40 mg/kg once daily for 8 days, p<0.001 vs. vehicle
  tumor hypoxia volume: 9.3±0.7%

## CCN(CC)CCNC(=O)c1c(C)[nH]c(/C=C2\C(=O)Nc3ccc(F)cc32)c1C [Sunitinib, sunitinib]
[4]; sunitinib 20 mg/kg QDx5 oral
  hypoxic fraction in the 786-O xenograft tumor: 1.6±0.9%
[4]; sunitinib 40 mg/kg QDx5 oral
  hypoxic fraction in the 786-O xenograft tumor: 17.2±0.9%
[11]
  tumor hypoxia volume (percent hypoxic fraction): 24±3.2%
[1]; 786-O, sunitinib 20 mpk p.o. QDx21, alone or with TH-302 50 mg/kg begun one week later
  TGI (%): 16.2%
[1]; 786-O, sunitinib 40 mpk p.o. QDx21, alone or with TH-302 50 mg/kg begun one week later
  TGI (%): 37.9%
[1]; 786-O, sunitinib 40 mpk p.o. QDx21, alone or with TH-302 50 mg/kg begun one week later, listed as sunitinib
  TGI (%): 38%
[5]; H460, Sunitinib 3 wks + TH-302 2 wks, sunitinib 40 mpk, alone or with TH-302 50 mg/kg
  TGI (%): 72.9* %
[5]; H460, Sunitinib 3 wks + TH-302 2 wks, sunitinib 80 mpk, alone or with TH-302 50 mg/kg
  TGI (%): 77.7* %
[5]; H460, Sunitinib 3 wks + TH-302 2 wks, sunitinib 80 mpk, alone or with TH-302 50 mg/kg, listed as sunitinib
  TGI (%): 78%
[5]; [20]
  TGI (%): 83* %
[5]; [21]
  TGI (%): 96* %
[2]; 786-O study, sunitinib 20 mpk, alone or with TH-302
  Max. BW loss (%): 0%
[2]; 786-O study, sunitinib 40 mpk, alone or with TH-302
  Max. BW loss (%): 0%
[2]; H460, Sunitinib 3 wks + TH-302 2 wks, sunitinib 40 mpk, alone or with TH-302
  Max. BW loss (%): 0%
[2]; H460, Sunitinib 3 wks + TH-302 2 wks, sunitinib 80 mpk, alone or with TH-302
  Max. BW loss (%): 0%
[2]; [20]
  Max. BW loss (%): 0.1%
[2]; [21]
  Max. BW loss (%): 0.5%

## Cn1c(COP(=O)(NCCBr)NCCBr)cnc1[N+](=O)[O-] [TH-302]
[1]; 786-O, TH-302 50 mpk i.p. QDx5 for 2 weeks, monotherapy
  TGI (%): 9.9%
[1]; [15]
  TGI (%): 15%
[5]; [22]
  TGI (%): 67.6* %
[5]; [23]
  TGI (%): 81* %
[5]; [16]
  TGI (%): 78 * %
[6]
  TGI (%): 15%
[7]
  TGI (%): 46 * %
[2]; 786-O RCC, TH-302 50 mpk from Day 1, alone or with Everolimus 5 mpk
  Max. BW loss (%): 0.2%
[2]; 786-O RCC, TH-302 50 mpk from Day 8, alone or with Everolimus 5 mpk
  Max. BW loss (%): 0%
[2]; 786-O study, TH-302 50 mpk monotherapy
  Max. BW loss (%): 0.1%
[2]; [22]
  Max. BW loss (%): 7.1%
[2]; [23]
  Max. BW loss (%): 0.6%
[2]; [17]
  Max. BW loss (%): 1.8%
[2]; [18]
  Max. BW loss (%): 4.8%
[2]; [19]
  Max. BW loss (%): 0%
[8]
  Max. BW loss (%): 6.3%
[3]; TH-302 50 mgs per kg QD×19 or 12 days from Day 8, everolimus QD×19
  TGI: 16%
[3]; TH-302 50 mpk from Day 1 (QD×19), alone or with Everolimus 5 mpk QD×19
  TGI (%): 15.7%
[3]; TH-302 50 mpk from Day 8 (12 days), alone or with Everolimus 5 mpk QD×19
  TGI (%): 14.2%

## CC(=O)O[C@H]1C(=O)[C@@]2(C)[C@H]([C@H](OC(=O)c3ccccc3)[C@]3(O)C[C@H](OC(=O)[C@H](O)[C@@H](NC(=O)c4ccccc4)c4ccccc4)C(C)=C1C3(C)C)[C@]1(OC(C)=O)CO[C@@H]1C[C@@H]2O [paclitaxel]
[12]
  OS: 26.5 months
  median PFS: 5.8 months

## IFN-α
[13]
  OS: 23 months
  median PFS: 5.4 months
[14]
  OS: 21.8 months
  median PFS: 5 months
